The values below come from ChEMBL document CHEMBL3045603, “Synthesis and Microbiological Evaluation of Some N-Methyl Piperidone Oxime Ethers” (2005).

For experiment [1], the system named is Aspergillus niger. Put plainly: Antifungal activity against Aspergillus niger after 72 to 96 hr by two-fold serial dilution method. It counts as functional.
For experiment [2], the system named is Aspergillus flavus. Description: Antifungal activity against Aspergillus flavus after 72 to 96 hr by two-fold serial dilution method. It counts as functional.
For experiment [3], the system named is Cryptococcus neoformans. Put plainly: Antifungal activity against Cryptococcus neoformans after 72 to 96 hr by two-fold serial dilution method. In kind it is functional.
Experiment [4] concerns Rhizopus. Description: Antifungal activity against Rhizopus sp. after 72 to 96 hr by two-fold serial dilution method. In kind it is functional.
Experiment [5] has as its system Candida albicans. Description: Antifungal activity against Candida albicans after 72 to 96 hr by two-fold serial dilution method. It counts as functional.
Another experiment has as its system Pseudomonas aeruginosa. Description: Antibacterial activity against Pseudomonas aeruginosa after 24 hr by two-fold serial dilution method. It counts as functional.
In experiment [6] the test system is Klebsiella pneumoniae. Description: Antibacterial activity against Klebsiella pneumoniae after 24 hr by two-fold serial dilution method. It counts as functional.
The subject of experiment [7] is Salmonella typhi. Description: Antibacterial activity against Salmonella enterica subsp. enterica serovar Typhi after 24 hr by two-fold serial dilution method. It counts as functional.
Experiment [8] concerns Escherichia coli. Put plainly: Antibacterial activity against Escherichia coli after 24 hr by two-fold serial dilution method. It counts as functional.
Experiment [9] has as its system Staphylococcus aureus. Put plainly: Antibacterial activity against Staphylococcus aureus after 24 hr by two-fold serial dilution method. It counts as functional.
The subject of experiment [10] is Aspergillus flavus. Put plainly: Antifungal activity against Aspergillus flavus at 200 ug/ml after 72 to 96 hr by two-fold serial dilution method. In kind it is functional, organism-based.
The subject of experiment [11] is Aspergillus niger. Description: Ratio of amphotericin-B MIC to compound MIC for Aspergillus niger. In kind it is functional.
For experiment [12], the system named is Cryptococcus neoformans. Description: Ratio of amphotericin-B MIC to compound MIC for Cryptococcus neoformans. In kind it is functional.
In experiment [13] the test system is Rhizopus. Description: Antifungal activity against Rhizopus sp. at 200 ug/ml after 72 to 96 hr by two-fold serial dilution method. In kind it is functional, organism-based.
Experiment [14] has as its system Klebsiella pneumoniae. Put plainly: Antibacterial activity against Klebsiella pneumoniae at 200 ug/mL after 24 hr by two-fold serial dilution method. It counts as functional, organism-based.
For experiment [15], the system named is Candida albicans. Put plainly: Antifungal activity against Candida albicans at 200 ug/ml after 72 to 96 hr by two-fold serial dilution method. In kind it is functional, organism-based.
For experiment [16], the system named is Staphylococcus aureus. Description: Ratio of ciprofloxacin MIC to compound MIC Staphylococcus aureus. In kind it is functional.
Experiment [17] concerns Klebsiella pneumoniae. Put plainly: Ratio of ciprofloxacin MIC to compound MIC for Klebsiella pneumoniae. It counts as functional.
Experiment [18] relates to Salmonella typhi. Description: Ratio of ciprofloxacin MIC to compound MIC for Salmonella enterica subsp. enterica serovar Typhi. In kind it is functional.
The subject of experiment [19] is Escherichia coli. Description: Ratio of ciprofloxacin MIC to compound MIC for Escherichia coli. In kind it is functional.

≈ marks a conversion by molar mass, not a printed value. Calls of active or inactive are those of the source. The calls are words filed in the database; no cut-off is given here.

`C[C@@H]1[C@H](O)[C@@H](C)/C=C/C=C/C=C/C=C/C=C/C=C/C=C/[C@H](O[C@@H]2O[C@H](C)[C@@H](O)[C@H](N)[C@@H]2O)C[C@@H]2O[C@](O)(C[C@@H](O)C[C@@H](O)[C@H](O)CC[C@@H](O)C[C@@H](O)CC(=O)O[C@H]1C)C[C@H](O)[C@H]2C(=O)O` [AMPHOTERICIN B]: the minimal inhibitory concentration (MIC) in the experiment with Aspergillus niger [1] amounted to 50 µg/mL (≈ 54.1 µM); with Aspergillus flavus [2], 50 µg/mL (≈ 54.1 µM); against Cryptococcus neoformans [3], 25 µg/mL (≈ 27.1 µM); against Rhizopus [4], 25 µg/mL (≈ 27.1 µM); in the experiment on Candida albicans [5], 25 µg/mL (≈ 27.1 µM).

In the case of `COc1ccc(C2CC(=NOCc3ccccc3)CC(c3ccc(OC)cc3)N2C)cc1` (centres undefined), the MIC in the experiment with Pseudomonas aeruginosa stood at 100 µg/mL (≈ 232 µM); against Aspergillus niger [1], 50 µg/mL (≈ 116 µM); with Aspergillus flavus [2], 50 µg/mL (≈ 116 µM); in the experiment on Cryptococcus neoformans [3], 50 µg/mL (≈ 116 µM); in the experiment with Rhizopus [4] it was 50 µg/mL (≈ 116 µM); against Candida albicans [5] it was 100 µg/mL (≈ 232 µM). For the same compound, the MIC in the experiment with Klebsiella pneumoniae [6] was 100 µg/mL (≈ 232 µM); against Salmonella typhi [7], 50 µg/mL (≈ 116 µM); against Escherichia coli [8], 100 µg/mL (≈ 232 µM); in the experiment with Staphylococcus aureus [9], 50 µg/mL (≈ 116 µM).

Regarding `CN1C(c2ccc(Cl)cc2)CC(=NOCc2ccccc2)CC1c1ccc(Cl)cc1` (centres undefined), the MIC in the experiment on Pseudomonas aeruginosa is 100 µg/mL (≈ 228 µM); against Aspergillus niger [1], 100 µg/mL (≈ 228 µM); in the experiment on Aspergillus flavus [2] it was 200 µg/mL (≈ 455 µM); with Cryptococcus neoformans [3], 50 µg/mL (≈ 114 µM); in the experiment on Rhizopus [4] it was 200 µg/mL (≈ 455 µM); with Candida albicans [5], 100 µg/mL (≈ 228 µM). The MIC in the experiment on Klebsiella pneumoniae [6] worked out at 100 µg/mL (≈ 228 µM); with Salmonella typhi [7], 100 µg/mL (≈ 228 µM); in the experiment with Escherichia coli [8] it was 50 µg/mL (≈ 114 µM); in the experiment with Staphylococcus aureus [9] it was 200 µg/mL (≈ 455 µM).

With `CCC1/C(=N\OCc2ccccc2)CC(c2ccccc2)N(C)C1c1ccccc1` (centres undefined), the MIC against Pseudomonas aeruginosa turned out to be 25 µg/mL (≈ 62.7 µM); in the experiment with Aspergillus niger [1] it was 50 µg/mL (≈ 125 µM); against Aspergillus flavus [2] it was 100 µg/mL (≈ 251 µM); against Cryptococcus neoformans [3] it was 50 µg/mL (≈ 125 µM); with Rhizopus [4] it was 100 µg/mL (≈ 251 µM); in the experiment with Candida albicans [5], 100 µg/mL (≈ 251 µM). Further, the MIC against Klebsiella pneumoniae [6] came to 200 µg/mL (≈ 502 µM); in the experiment on Salmonella typhi [7] it was 50 µg/mL (≈ 125 µM); in the experiment with Escherichia coli [8], 100 µg/mL (≈ 251 µM); in the experiment on Staphylococcus aureus [9], 100 µg/mL (≈ 251 µM).

Take `Cc1ccc(C2CC(=NOCc3ccccc3)CC(c3ccc(C)cc3)N2C)cc1` (centres undefined): the MIC was 100 µg/mL (≈ 251 µM) against Pseudomonas aeruginosa; 50 µg/mL (≈ 125 µM) against Aspergillus niger [1]; 100 µg/mL (≈ 251 µM) against Aspergillus flavus [2]; 50 µg/mL (≈ 125 µM) in the experiment with Cryptococcus neoformans [3]; 50 µg/mL (≈ 125 µM) in the experiment on Rhizopus [4]; 100 µg/mL (≈ 251 µM) in the experiment with Candida albicans [5]. Further, the minimum inhibitory concentration (MIC) in the experiment with Klebsiella pneumoniae [6] is 100 µg/mL (≈ 251 µM); in the experiment on Salmonella typhi [7] it was 100 µg/mL (≈ 251 µM); in the experiment with Escherichia coli [8], 50 µg/mL (≈ 125 µM); in the experiment on Staphylococcus aureus [9] it was 100 µg/mL (≈ 251 µM).

With `CC(C)C1/C(=N\OCc2ccccc2)CC(c2ccccc2)N(C)C1c1ccccc1` (centres undefined), the MIC against Pseudomonas aeruginosa is 50 µg/mL (≈ 121 µM); in the experiment with Aspergillus niger [1], 100 µg/mL (≈ 242 µM); with Cryptococcus neoformans [3], 25 µg/mL (≈ 60.6 µM); in the experiment on Rhizopus [4], 200 µg/mL (≈ 485 µM); in the experiment on Candida albicans [5], 50 µg/mL (≈ 121 µM); with Klebsiella pneumoniae [6], 100 µg/mL (≈ 242 µM). For the same compound, the minimal inhibitory concentration (MIC) with Salmonella typhi [7] was 50 µg/mL (≈ 121 µM); in the experiment with Escherichia coli [8], 50 µg/mL (≈ 121 µM); against Staphylococcus aureus [9], 100 µg/mL (≈ 242 µM). Also, the inhibition entry with Aspergillus flavus [10] was “inactive”.

Regarding `O=C(O)c1cn(C2CC2)c2cc(N3CCNCC3)c(F)cc2c1=O` [CIPROFLOXACIN], the figures for the minimal inhibitory concentration (MIC) against Salmonella typhi [7] and in the experiment with Escherichia coli [8] were 50 µg/mL (≈ 151 µM) and 25 µg/mL (≈ 75.4 µM), respectively.

Regarding `Cc1ccc(C2C/C(=N/OCc3ccccc3)C(C)C(c3ccc(C)cc3)N2C)cc1` (centres undefined), the MIC came to 25 µg/mL (≈ 60.6 µM) against Pseudomonas aeruginosa; 25 µg/mL (≈ 60.6 µM) in the experiment with Aspergillus niger [1]; 50 µg/mL (≈ 121 µM) in the experiment with Aspergillus flavus [2]; 12.5 µg/mL (≈ 30.3 µM) against Cryptococcus neoformans [3]; 25 µg/mL (≈ 60.6 µM) against Rhizopus [4]; 50 µg/mL (≈ 121 µM) against Candida albicans [5]. For the same compound, the MIC in the experiment with Klebsiella pneumoniae [6], against Salmonella typhi [7], against Escherichia coli [8] and against Staphylococcus aureus [9] was 50 µg/mL (≈ 121 µM) each time. The Ratio with Aspergillus niger [11] and in the experiment on Cryptococcus neoformans [12] was 2 in each case.

`CC1/C(=N\OCc2ccccc2)CC(c2ccccc2)N(C)C1c1ccccc1` (centres undefined): the MIC came out at 50 µg/mL (≈ 130 µM) against Pseudomonas aeruginosa; 50 µg/mL (≈ 130 µM) with Aspergillus niger [1]; 100 µg/mL (≈ 260 µM) against Aspergillus flavus [2]; 100 µg/mL (≈ 260 µM) against Cryptococcus neoformans [3]; 200 µg/mL (≈ 520 µM) in the experiment with Candida albicans [5]; 100 µg/mL (≈ 260 µM) against Salmonella typhi [7]. For the same compound, the MIC in the experiment with Escherichia coli [8] and against Staphylococcus aureus [9] was 100 µg/mL (≈ 260 µM) throughout. The inhibition result with Rhizopus [13] and with Klebsiella pneumoniae [14] was “inactive” in each case.

Take `CN1C(c2ccccc2)CC(=NOCc2ccccc2)CC1c1ccccc1` (centres undefined): the MIC against Pseudomonas aeruginosa was 100 µg/mL (≈ 270 µM); with Aspergillus niger [1], 100 µg/mL (≈ 270 µM); in the experiment with Cryptococcus neoformans [3] it was 100 µg/mL (≈ 270 µM); against Salmonella typhi [7], 100 µg/mL (≈ 270 µM); against Escherichia coli [8] it was 200 µg/mL (≈ 540 µM); against Staphylococcus aureus [9], 200 µg/mL (≈ 540 µM). Also, the inhibition result in the experiment with Aspergillus flavus [10], in the experiment on Rhizopus [13], with Candida albicans [15] and with Klebsiella pneumoniae [14] was “inactive” each time.

Regarding `COc1ccc(C2C/C(=N/OCc3ccccc3)C(C)C(c3ccc(OC)cc3)N2C)cc1` (centres undefined), the MIC with Pseudomonas aeruginosa was found to be 12.5 µg/mL (≈ 28.1 µM); in the experiment with Aspergillus niger [1], 25 µg/mL (≈ 56.2 µM); against Aspergillus flavus [2] it was 25 µg/mL (≈ 56.2 µM); against Cryptococcus neoformans [3], 12.5 µg/mL (≈ 28.1 µM); against Rhizopus [4], 12.5 µg/mL (≈ 28.1 µM); against Candida albicans [5], 25 µg/mL (≈ 56.2 µM). Moreover, the MIC against Klebsiella pneumoniae [6] came to 25 µg/mL (≈ 56.2 µM); against Salmonella typhi [7], 50 µg/mL (≈ 112 µM); with Escherichia coli [8], 25 µg/mL (≈ 56.2 µM); in the experiment with Staphylococcus aureus [9], 12.5 µg/mL (≈ 28.1 µM). Also, the Ratio in the experiment on Staphylococcus aureus [16] and in the experiment on Klebsiella pneumoniae [17] was 2 in each case.

Turning to `CC1/C(=N\OCc2ccccc2)CC(c2ccc(Cl)cc2)N(C)C1c1ccc(Cl)cc1` (centres undefined), the MIC with Pseudomonas aeruginosa came to 50 µg/mL (≈ 110 µM); against Aspergillus niger [1], 25 µg/mL (≈ 55.1 µM); against Aspergillus flavus [2], 50 µg/mL (≈ 110 µM); against Cryptococcus neoformans [3], 25 µg/mL (≈ 55.1 µM); with Rhizopus [4] it was 100 µg/mL (≈ 221 µM); in the experiment on Candida albicans [5] it was 100 µg/mL (≈ 221 µM). Besides, the MIC came out at 25 µg/mL (≈ 55.1 µM) with Klebsiella pneumoniae [6], 25 µg/mL (≈ 55.1 µM) in the experiment on Salmonella typhi [7], 12.5 µg/mL (≈ 27.6 µM) with Escherichia coli [8] and 50 µg/mL (≈ 110 µM) against Staphylococcus aureus [9]. Also, the Ratio in the experiment on Salmonella typhi [18], in the experiment with Klebsiella pneumoniae [17] and in the experiment on Escherichia coli [19] was 1 throughout.
